Measured values reported in US6586437B2, “(S)-hydroxynefazodone antipsychotic therapy” (Sepracor Inc., priority 1999, dated 2003).
Counter-ions that a name gives are not always drawn.

Tests used:
α1 Receptor = experiment: α1 receptor binding; conditions: read-out: α1 Receptor Binding IC50, Alpha1
[1] = target: T1, norepinephrine uptake, rat hypothalamus synaptosomes (Rattus norvegicus, UniProt Q9WTR4); experiment: Norepinephrine uptake functional assay (synaptosomes); format: biochemical, male Wistar rat; conditions: [3H]-norepinephrine, read-out: Monoamine Neuronal Transport IC50, NE uptake
T1 construct: synaptosomes isolated at Cerep in a 0.32 M sucrose buffer from a male Wistar rat hypothalamus; from tissue; host or cells: male Wistar rat hypothalamus synaptosomes
Experimental: Norepinephrine Uptake Functional Assay
Characterization of norepinephrine uptake is performed using synaptosomes isolated at Cerep in a 0.32 M sucrose buffer from a male Wistar rat hypothalamus. The uptake of radiolabeled norepinephrine by synaptosomes (100 μg of proteins/point) is allowed by incubating them for 20 minutes at 37° C. in presence of test compounds and [3H]-norepinephrine (0.1 μCi/point). The experiment is performed in a deep well.
Synaptosomes and [3H]-norepinephrine are prepared in a Krebs buffer pH 7.4 containing 25 mM NaHCO3, 11 mM glucose and 50 μM ascorbic acid. This incubation buffer is oxygenated during 5 minutes before incubation. Basal control is incubated for 20 minutes at 4° C. in order to avoid any uptake. Following this incubation the uptake is stopped by filtration through an “unifilter 96-wells GFB ” Packard plate washed with Krebs buffer containing 25 mM NaHCO3 in order to eliminate the free [3H]-norepinephrine. The radioactivity associated to the synaptosomes retained onto the unifilter corresponding to the uptake is then measured with a microplate scintillation counter Topcount, Packard using a scintillation liquid microscint 0, Packard.
[See Perovics and Müller, op.cit. (1995).]

[2] = cited from earlier work
[3] = tested on: alpha1-adrenergic receptors; conditions: cited from earlier work
[4] = tested on: beta adrenergic receptors; conditions: in vitro binding studies; cited from earlier work
cholinergic receptors = conditions: in vitro binding studies; cited from earlier work
5-HT1A receptors = target: T2, 5-HT1A receptors (Homo sapiens, UniProt P08908); conditions: in vitro binding studies; cited from earlier work
T2 sequence (P08908 1-422): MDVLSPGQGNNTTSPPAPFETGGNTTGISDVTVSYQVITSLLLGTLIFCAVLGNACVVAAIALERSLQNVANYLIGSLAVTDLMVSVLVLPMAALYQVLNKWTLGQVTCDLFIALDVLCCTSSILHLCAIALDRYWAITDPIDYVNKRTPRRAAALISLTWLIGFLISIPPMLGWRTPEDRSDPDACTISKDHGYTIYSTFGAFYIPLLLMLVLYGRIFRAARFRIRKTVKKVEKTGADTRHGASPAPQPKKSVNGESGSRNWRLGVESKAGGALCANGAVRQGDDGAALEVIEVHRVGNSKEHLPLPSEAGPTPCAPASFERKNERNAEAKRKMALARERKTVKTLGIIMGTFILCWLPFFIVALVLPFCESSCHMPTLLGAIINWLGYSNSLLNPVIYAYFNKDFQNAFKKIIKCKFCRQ

benzodiazepine receptors = conditions: in vitro binding studies; cited from earlier work
dopaminergic receptors = conditions: in vitro binding studies; cited from earlier work
[5] = tested on: alpha2 adrenergic receptors; conditions: in vitro binding studies; cited from earlier work

T1 sequence (Q9WTR4 1-597): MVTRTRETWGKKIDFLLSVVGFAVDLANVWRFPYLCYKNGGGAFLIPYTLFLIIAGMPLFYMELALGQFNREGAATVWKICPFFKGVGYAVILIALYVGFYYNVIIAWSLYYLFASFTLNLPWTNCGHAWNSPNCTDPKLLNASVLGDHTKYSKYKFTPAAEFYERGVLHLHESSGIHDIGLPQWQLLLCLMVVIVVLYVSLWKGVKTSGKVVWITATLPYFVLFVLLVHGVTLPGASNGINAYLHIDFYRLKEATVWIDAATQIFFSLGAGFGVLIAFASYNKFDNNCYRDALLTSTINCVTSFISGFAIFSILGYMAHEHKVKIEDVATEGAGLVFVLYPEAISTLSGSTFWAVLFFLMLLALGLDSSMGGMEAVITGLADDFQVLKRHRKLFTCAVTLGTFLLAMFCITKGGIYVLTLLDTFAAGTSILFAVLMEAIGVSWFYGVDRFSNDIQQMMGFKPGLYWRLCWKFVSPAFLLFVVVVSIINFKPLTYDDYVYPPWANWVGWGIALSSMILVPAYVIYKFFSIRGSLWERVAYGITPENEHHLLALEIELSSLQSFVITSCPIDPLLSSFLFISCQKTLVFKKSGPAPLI

C[C@@H](O)c1nn(CCCN2CCN(c3cccc(Cl)c3)CC2)c(=O)n1CCOc1ccccc1 [(R)—OH, (R)-Hydroxynefazodone hydrochloride]
IC50 (α1 Receptor): 367 nM
IC50 [1]: 1200 nM

CC(O)c1nn(CCCN2CCN(c3cccc(Cl)c3)CC2)c(=O)n1CCOc1ccccc1 (racemic) [(RS)—OH, 2-[3-[4-(3-chlorophenyl)1-piperazinyl]propyl]-5-(1-hydroxyethyl)-2,4-dihydro-4-(phenoxyethyl)-3H-1,2,4-triazol-3-one]
IC50 (α1 Receptor): 381 nM
IC50 [1]: 1000 nM

CCc1nn(CCCN2CCN(c3cccc(Cl)c3)CC2)c(=O)n1CCOc1ccccc1 [Nefazodone hydrochloride]
absolute bioavailability ([2]; low and variable because of extensive metabolism): about 20%

CCc1nn(CCCN2CCN(c3cccc(Cl)c3)CC2)c(=O)n1CCOc1ccccc1 [Nefazodone]
half-life ([2]; in vivo): 2 to 4 h
time of peak plasma concentrations ([2]; in vivo): about one
effect on alpha1-adrenergic receptors [3]: antagonize
affinity for beta adrenergic receptors [4]: no significant affinity
IC50 (α1 Receptor): 306 nM
affinity for cholinergic receptors (cholinergic receptors): no significant affinity
affinity for 5-HT1A receptors (5-HT1A receptors): no significant affinity
affinity for benzodiazepine receptors (benzodiazepine receptors): no significant affinity
affinity for dopaminergic receptors (dopaminergic receptors): no significant affinity
affinity for alpha2 adrenergic receptors [5]: no significant affinity

C[C@H](O)c1nn(CCCN2CCN(c3cccc(Cl)c3)CC2)c(=O)n1CCOc1ccccc1 [(S)—OH, (S)-2-{3-[4-(3-Chlorophenyl)-1-piperazinyl]propyl}-4-(2-phenoxyethyl)-5-[1-(hydroxy)-ethyl]-2,4-dihydro-[1,2,4]triazol-3-one]
IC50 (α1 Receptor): 419 nM
IC50 [1]: 1500 nM
